Source: patent US10526316B2, “Quinoxaline and pyridopyrazine derivatives as PI3Kβ inhibitors” (Janssen Pharmaceutica NV, priority 2015, dated 2020)
Read-outs that look alike come from different tables or passages of the source.

Key:
[1] = target: T1, PI3Kβ (Homo sapiens, UniProt P42338); assay: Enzyme binding assay (KINOMEscan, DiscoveRx); settings: PIK3Cβ_h, read-out: Kd PIK3Cβ_h
T1 construct: purchased DiscoveRx Corporation, San Diego (contract service, KINOMEscan)
Method in brief: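 Kinase binding affinities were measured with KINOMEscan technology. Results are given as Kd, the inhibitor binding constant, in nM.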

[2] = system: Akt phosphorylated at Ser473 in PC-3 cells; assay: Cellular assay: phosphorylation of Akt at Ser473 in PC-3 cells (MSD ELISA); type: cell-based; settings: PC-3 cells, 60 min compound incubation, MSD ELISA, read-out: IC50 pAkt_S473
Method in brief: (§1)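 PC-3 cells were exposed to compound or 0.3% DMSO for 60 min at 37° C, 5% CO2, then lysed in ice-cold buffer. Phospho-Akt was captured on site-specific antibody-coated plates and detected with Sulfo-tag anti-total Akt by electrochemiluminescence. IC50 values came from five-concentration response curves.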

[3] = system: Akt phosphorylated at Thr308 in PC-3 cells; assay: Cellular assay: phosphorylation of Akt at Thr308 in PC-3 cells (MSD ELISA); type: cell-based; settings: PC-3 cells, 60 min compound incubation, MSD ELISA, read-out: IC50 pAkt_Thr308
Method in brief: as §1

[4] = target: T2, kinase enzymes (Homo sapiens, UniProt P42336); assay: Enzyme binding assay (KINOMEscan, DiscoveRx), further kinases of Table A; settings: PIK3Cα_h
T2 construct: purchased DiscoveRx Corporation, San Diego (contract service, KINOMEscan)
T2 sequence (P42336 whole entry): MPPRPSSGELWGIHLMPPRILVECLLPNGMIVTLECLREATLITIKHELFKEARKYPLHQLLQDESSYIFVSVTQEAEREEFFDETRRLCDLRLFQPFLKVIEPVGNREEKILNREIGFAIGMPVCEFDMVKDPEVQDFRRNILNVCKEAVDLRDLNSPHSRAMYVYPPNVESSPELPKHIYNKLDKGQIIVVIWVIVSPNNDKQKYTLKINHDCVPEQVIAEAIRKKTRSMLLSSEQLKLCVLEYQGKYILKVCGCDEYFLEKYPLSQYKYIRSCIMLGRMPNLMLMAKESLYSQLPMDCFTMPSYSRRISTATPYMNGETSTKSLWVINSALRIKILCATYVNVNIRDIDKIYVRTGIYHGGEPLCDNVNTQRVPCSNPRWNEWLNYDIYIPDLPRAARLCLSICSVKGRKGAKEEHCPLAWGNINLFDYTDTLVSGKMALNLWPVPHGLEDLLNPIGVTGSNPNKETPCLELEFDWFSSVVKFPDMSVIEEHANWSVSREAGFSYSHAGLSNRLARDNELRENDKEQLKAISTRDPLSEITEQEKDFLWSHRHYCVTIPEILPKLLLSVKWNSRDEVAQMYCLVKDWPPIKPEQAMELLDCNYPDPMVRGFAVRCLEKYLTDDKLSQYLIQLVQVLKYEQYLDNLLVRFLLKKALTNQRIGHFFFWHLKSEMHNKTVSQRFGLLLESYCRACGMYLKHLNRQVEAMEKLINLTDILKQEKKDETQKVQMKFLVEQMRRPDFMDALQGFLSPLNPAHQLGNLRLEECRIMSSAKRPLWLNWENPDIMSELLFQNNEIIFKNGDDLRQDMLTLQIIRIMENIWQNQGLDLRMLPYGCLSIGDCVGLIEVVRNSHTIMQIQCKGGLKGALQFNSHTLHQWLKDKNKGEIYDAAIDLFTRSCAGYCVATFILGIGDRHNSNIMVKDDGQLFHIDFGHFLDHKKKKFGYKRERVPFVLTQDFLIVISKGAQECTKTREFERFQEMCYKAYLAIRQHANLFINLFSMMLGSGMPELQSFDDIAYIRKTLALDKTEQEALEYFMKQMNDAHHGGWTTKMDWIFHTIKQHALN
Method in brief: (§2)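 Binding affinities were measured on the KINOMEscan platform.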

[5] = target: T3, kinase enzymes (Homo sapiens, UniProt P48736); assay: as above; settings: PIK3Cγ_h
T3 construct: purchased DiscoveRx Corporation, San Diego (contract service, KINOMEscan)
T3 sequence (P48736 whole entry): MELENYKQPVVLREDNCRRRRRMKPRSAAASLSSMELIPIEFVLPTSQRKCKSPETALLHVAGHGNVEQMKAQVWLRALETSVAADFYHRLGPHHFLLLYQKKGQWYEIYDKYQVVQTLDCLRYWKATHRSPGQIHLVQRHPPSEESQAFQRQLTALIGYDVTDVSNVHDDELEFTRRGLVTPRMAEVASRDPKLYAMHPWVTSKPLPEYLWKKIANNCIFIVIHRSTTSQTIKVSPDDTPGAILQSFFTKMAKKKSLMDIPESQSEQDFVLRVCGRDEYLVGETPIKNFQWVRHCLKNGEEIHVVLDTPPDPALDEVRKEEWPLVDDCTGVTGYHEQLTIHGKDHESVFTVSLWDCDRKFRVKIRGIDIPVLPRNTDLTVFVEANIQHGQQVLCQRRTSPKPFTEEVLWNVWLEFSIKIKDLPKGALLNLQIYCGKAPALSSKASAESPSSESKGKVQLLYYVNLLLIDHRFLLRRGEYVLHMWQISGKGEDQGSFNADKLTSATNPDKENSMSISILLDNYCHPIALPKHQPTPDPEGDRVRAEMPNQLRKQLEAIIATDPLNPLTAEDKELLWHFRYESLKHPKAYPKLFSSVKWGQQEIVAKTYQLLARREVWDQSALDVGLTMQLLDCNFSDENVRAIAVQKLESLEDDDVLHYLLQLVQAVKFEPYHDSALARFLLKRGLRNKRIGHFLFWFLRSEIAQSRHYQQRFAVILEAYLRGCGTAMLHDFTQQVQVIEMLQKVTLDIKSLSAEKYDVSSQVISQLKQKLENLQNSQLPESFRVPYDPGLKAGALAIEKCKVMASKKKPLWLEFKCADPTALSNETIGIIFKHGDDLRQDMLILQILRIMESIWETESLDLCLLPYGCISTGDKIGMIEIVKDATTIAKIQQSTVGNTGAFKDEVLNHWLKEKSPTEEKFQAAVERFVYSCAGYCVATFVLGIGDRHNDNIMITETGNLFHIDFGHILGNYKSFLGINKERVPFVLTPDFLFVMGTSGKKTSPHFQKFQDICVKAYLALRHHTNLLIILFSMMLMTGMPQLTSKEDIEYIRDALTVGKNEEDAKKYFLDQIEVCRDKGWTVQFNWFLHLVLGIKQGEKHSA
Method in brief: as §2

[6] = target: T4, kinase enzymes (Homo sapiens, UniProt P42345); assay: as above; settings: MTOR_h
T4 construct: purchased DiscoveRx Corporation, San Diego (contract service, KINOMEscan)
Method in brief: as §2

[7] = target: T5, PI3Kδ (Homo sapiens, UniProt O00329); assay: Enzyme binding assay (KINOMEscan, DiscoveRx); settings: PIK3Cδ_h
T5 construct: purchased DiscoveRx Corporation, San Diego (contract service, KINOMEscan)
T5 sequence (O00329 1-1044): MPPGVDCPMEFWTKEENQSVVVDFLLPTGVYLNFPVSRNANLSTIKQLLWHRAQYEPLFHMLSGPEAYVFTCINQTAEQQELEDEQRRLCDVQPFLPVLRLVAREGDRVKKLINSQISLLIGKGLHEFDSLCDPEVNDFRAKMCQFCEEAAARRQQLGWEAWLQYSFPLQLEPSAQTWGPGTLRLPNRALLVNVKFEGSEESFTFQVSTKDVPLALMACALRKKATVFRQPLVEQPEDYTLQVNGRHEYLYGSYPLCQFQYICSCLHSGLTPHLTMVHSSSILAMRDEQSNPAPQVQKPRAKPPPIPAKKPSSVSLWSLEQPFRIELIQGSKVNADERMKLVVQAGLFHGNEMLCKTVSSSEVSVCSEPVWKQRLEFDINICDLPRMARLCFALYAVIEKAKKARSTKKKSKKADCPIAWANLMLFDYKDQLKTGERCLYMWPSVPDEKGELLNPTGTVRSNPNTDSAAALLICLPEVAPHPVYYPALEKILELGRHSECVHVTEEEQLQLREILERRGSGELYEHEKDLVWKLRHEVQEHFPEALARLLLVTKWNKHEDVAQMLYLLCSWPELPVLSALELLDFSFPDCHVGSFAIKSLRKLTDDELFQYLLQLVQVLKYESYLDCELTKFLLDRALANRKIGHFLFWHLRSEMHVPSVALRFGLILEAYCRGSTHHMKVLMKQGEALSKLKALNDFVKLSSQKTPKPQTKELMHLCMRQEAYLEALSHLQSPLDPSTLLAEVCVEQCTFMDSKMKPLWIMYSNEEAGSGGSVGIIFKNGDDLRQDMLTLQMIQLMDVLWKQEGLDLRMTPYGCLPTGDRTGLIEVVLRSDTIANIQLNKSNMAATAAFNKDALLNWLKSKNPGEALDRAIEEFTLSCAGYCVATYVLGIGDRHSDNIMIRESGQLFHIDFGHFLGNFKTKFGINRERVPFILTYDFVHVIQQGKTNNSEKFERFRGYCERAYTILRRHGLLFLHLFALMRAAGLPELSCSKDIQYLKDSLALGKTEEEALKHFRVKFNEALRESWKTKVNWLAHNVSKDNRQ
Method in brief: as §2

T1 sequence (P42338 whole entry): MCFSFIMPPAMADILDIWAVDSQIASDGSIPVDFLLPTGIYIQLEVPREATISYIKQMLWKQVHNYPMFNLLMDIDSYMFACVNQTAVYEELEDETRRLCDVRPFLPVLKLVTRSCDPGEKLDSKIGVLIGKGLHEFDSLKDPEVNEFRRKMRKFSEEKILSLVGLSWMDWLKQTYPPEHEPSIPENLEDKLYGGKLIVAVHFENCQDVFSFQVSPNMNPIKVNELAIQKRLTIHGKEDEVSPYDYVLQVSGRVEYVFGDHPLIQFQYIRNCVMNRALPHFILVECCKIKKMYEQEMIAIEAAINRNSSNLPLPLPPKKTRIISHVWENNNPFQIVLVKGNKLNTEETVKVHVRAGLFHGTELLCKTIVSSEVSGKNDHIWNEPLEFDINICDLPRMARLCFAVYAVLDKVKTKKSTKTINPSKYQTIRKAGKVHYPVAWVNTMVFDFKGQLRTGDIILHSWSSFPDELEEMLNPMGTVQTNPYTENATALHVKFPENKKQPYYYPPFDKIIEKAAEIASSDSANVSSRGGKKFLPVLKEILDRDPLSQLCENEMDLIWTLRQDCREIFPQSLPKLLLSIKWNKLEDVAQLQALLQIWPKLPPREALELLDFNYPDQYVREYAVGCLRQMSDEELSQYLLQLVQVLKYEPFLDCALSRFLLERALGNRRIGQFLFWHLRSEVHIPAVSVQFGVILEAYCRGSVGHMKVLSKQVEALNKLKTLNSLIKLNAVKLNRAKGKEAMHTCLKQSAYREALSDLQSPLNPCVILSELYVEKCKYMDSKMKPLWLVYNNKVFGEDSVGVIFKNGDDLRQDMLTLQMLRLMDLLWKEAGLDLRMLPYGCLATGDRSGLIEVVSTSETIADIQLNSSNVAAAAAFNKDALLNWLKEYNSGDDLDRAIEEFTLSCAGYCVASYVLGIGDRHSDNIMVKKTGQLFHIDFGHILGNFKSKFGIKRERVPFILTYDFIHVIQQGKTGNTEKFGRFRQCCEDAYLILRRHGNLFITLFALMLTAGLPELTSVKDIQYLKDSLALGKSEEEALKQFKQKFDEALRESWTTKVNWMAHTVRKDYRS

| SMILES | Kd [1] [µM] | IC50 [2] [µM] | IC50 [3] [µM] | melting point [°C] | Kd [4] [µM] | Kd [5] [µM] | Kd [6] [µM] | Kd [7] [µM] | IC50 ([2]; Homo sapiens, PC-3, 1 h) [µM] | IC50 ([3]; Homo sapiens, PC-3, 1 h) [µM] |
| --- | --- | --- | --- | --- | --- | --- | --- | --- | --- | --- |
| O=C(c1cc(C2CCCN2c2cc(F)cc(F)c2)c2nc(N3CCOCC3)cnc2c1)N1CCS(=O)(=O)CC1 (single isomer, unassigned) [Compound 43] | 0.316 | > 0.513 | 0.331 | 80 | 4.68 | 1.1 | > 30.2 | 7.24 | – | – |
| COC(=O)c1cc(C2CCCN2c2cc(F)cc(F)c2)c2nc(N3CCOCC3)cnc2c1 (single isomer, unassigned) [Compound 31] | > 32 | > 0.513 | > 0.513 | 213 | > 32 | > 32 | > 32 | > 32 | – | – |
| Cc1c(F)cccc1NCc1cc(C(=O)N(C)C)cc2ncc(N3CCOCC3)nc12 [Compound 382] | 0.017 | – | – | 150 | > 30.2 | > 30.2 | > 30.2 | 5.01 | 0.513 | 0.091 |
| CC1CN(C(=O)c2cc(C(C)Nc3ccc(F)c(F)c3)c3nc(N4CCOCC4)cnc3c2)CC(C)N1 (stereo not shown) [Compound 357b] | 0.001 | – | – | 120 | 0.933 | 8.13 | > 30.2 | 0.158 | 0.03 | 0.014 |
| CN(C)C(=O)c1cc(C2CCCN2c2ccc(C#N)c(F)c2)c2nc(N3CCOCC3)cnc2c1 (stereo not shown) [Compound 54] | 0.115 | – | – | 80 | 16.2 | > 30.2 | 26.9 | 7.08 | > 0.513 | > 0.513 |
| CC(Oc1ccc(F)c(F)c1)c1cc(C(=O)N2CCN3CCC[C@H]3C2)cc2ncc(N3CCOCC3)nc12 (single isomer, unassigned) [Compound 369b] | 3.31 | > 0.513 | > 0.513 | 147 | > 30.2 | > 30.2 | > 30.2 | 28.8 | – | – |
| CNCCN(C)C(=O)c1cc(C(C)Nc2cc(F)c(C(F)(F)F)c(F)c2)c2nc(N3CCOCC3)cnc2c1 (stereo not shown) [Compound 224] | 0.186 | – | – | 163 | 27.5 | > 30.2 | > 30.2 | 4.47 | 0.468 | > 0.513 |
| CC(Nc1cc(F)cc(F)c1)c1cc(C(=O)NC2CN(CC(F)(F)F)C2)cc2ncc(N3CCOCC3)nc12 (stereo not shown) [Compound 238] | 0.008 | – | – | 110 | 5.01 | 12.3 | > 30.2 | 2.21 | 0.219 | 0.157 |
| CNCC(O)c1cc(C2CCCN2c2cc(F)cc(F)c2)c2nc(N3CCOCC3)cnc2c1 (stereo not shown) [Compound 19] | 0.0002 | – | – | 80 | 0.363 | 0.309 | 18.2 | 0.029 | 0.015 | 0.01 |
| CC(Nc1cc(F)cc(F)c1)c1cc(CN2CCn3nccc3C2)cc2ncc(N3CCOCC3)nc12 (single isomer, unassigned) [Compound 222] | 0.759 | > 0.513 | > 0.513 | 163 | > 30.2 | > 30.2 | > 30.2 | > 30.2 | – | – |
| CC(Nc1cc(Cl)cc(Cl)c1)c1cc(C(=O)N2CCOCC2)cc2ncc(N3CCOCC3)nc12 (stereo not shown) [Compound 133] | 0.003 | – | – | 80 | 5.75 | 26.3 | > 30.2 | 0.263 | 0.059 | 0.032 |
| CN(C)C(=O)c1cc(C2CCCN2c2cc(F)cc(C=O)c2)c2nc(N3CCOCC3)cnc2c1 (stereo not shown) [Compound 44] | 0.001 | – | – | 80 | 0.234 | 0.631 | 23.4 | 0.174 | 0.074 | 0.066 |
| CC(Nc1ccc(F)c(F)c1)c1cc(C(=O)N2CCN3CCC[C@@H]3C2)cc2ncc(N3CCOCC3)nc12 (stereo partly shown) [Compound 347] | 0.004 | 0.219 | – | 170 | 3.72 | 28.8 | > 30.2 | 0.407 | – | 0.063 |
| CC(Nc1cc(F)cc(F)c1)c1cc(CN2CCOCC2)cc2ncc(N3CCOCC3)nc12 (stereo not shown) [Compound 168] | 0.017 | – | – | 165 | 3.63 | > 30.2 | > 30.2 | 1.86 | 0.214 | 0.112 |
| O=C(c1cc(C2CCCN2c2cc(F)cc(F)c2)c2nc(N3CCOCC3)cnc2c1)N1CCS(=O)(=O)CC1 (single isomer, unassigned) [Compound 38] | 0.0004 | ~0.0008 | 0.001 | 146 | 0.003 | 0.933 | > 30.2 | 0.006 | – | – |
| CC(Nc1cccc(C#N)c1)c1cc(C(=O)N2CCOCC2)cc2ncc(N3CCOCC3)nc12 (stereo not shown) [Compound 131] | 0.011 | – | – | 80 | 3.16 | 20 | > 30.2 | 2.51 | 0.501 | 0.363 |
| O=Cc1cc(C2CCCN2c2cc(F)cc(F)c2)c2nc(N3CCOCC3)cnc2c1 (stereo not shown) [Compound 250] | 0.001 | – | – | 120 | 0.339 | 0.955 | 14.5 | 0.219 | 0.005 | 0.006 |
